Consider 16 compounds from article PMC10958501, “4-Oxypiperidine Ethers as Multiple Targeting Ligands at Histamine H3 Receptors and Cholinesterases” (ACS Chemical Neuroscience, 2024).

The term pA2 denotes the negative logarithm of the molar antagonist concentration that doubles the agonist concentration needed for the same response. What is called IC50 is the concentration that gives 50% inhibition. For orientation: Ki means the equilibrium dissociation constant of an inhibitor or competing ligand from its target.

Where two headings read alike, the source gives them in different places. Where only a bound is given, the exact number is not on record here.

For series [1], the system named is H3R. Set-up: method as in PMID 29671795, PMID 23957330. The conditions noted are these: cited from earlier work.
Details of series [2]: method as in PMID 29671795. The conditions noted are these: in vivo; cited from earlier work.
Series [3] concerns the target eqBuChE (Equus caballus, UniProt P81908). The series can be described thus: biochemical. The following applies: for inhibition at 10 µM: read-out: eqBuChE % inh. (10 μM) ± SD; for IC50: read-out: eqBuChE IC50 [μM] ± sem.
Series [4] deals with T1, gpH3R (Cavia porcellus, UniProt Q9JI35).
T1 construct: isolated guinea pig ileum electrically stimulated to contraction; from tissue; host or cells: distal ileum of male guinea pigs
Kind of series: Ex vivo gpH3R screening on isolated guinea pig ileum electrically stimulated to contraction. On the procedure: All newly synthesized compounds were evaluated ex vivo as H3R antagonists/inverse agonists on guinea pig ileum (gpH3R) stimulated electrically for contraction.[47]
The compounds were tested against H3R by an ex vivo assay using isolated guinea pig ileum electrically stimulated to contraction, according to Vollinga et al.[47] The pA2-values were calculated according to Arunlakshana and Schild.[59] The radioligand-displacement assay was performed in membrane fractions of HEK-293 cells stably expressing hH3R. Cell cultivation and membrane preparation were performed according to Kottke et al.[48] The Ki values were calculated from the IC50 values using the Cheng–Prusoff equation.[60] The statistical calculations were performed on −log(Ki). […] The inhibitory activities toward AChE and BuChE of novel ADS compounds were assessed in a spectrophotometric Ellman’s assay using electric eel AChE (eeAChE) and equine BuChE (eqBuChE).[57] Intracellular cAMP accumulation was measured with a homogeneous TR-FRET immunoassay using the LANCE Ultra cAMP kit (PerkinElmer) and HEK293 cells stably expressing the human histamine H3 receptor.[61] A more detailed description of the biological methods is presented in the Supporting Information.
3. Pharmacological assay results.
3.1. Ex vivo assay for histamine H 3R receptor antagonists on guinea pig ileum.
Male guinea pigs, weighing 300-400 g were euthanized by a blow to the neck. Following this, a 20-30 cm length of the distal ileum, apart from the terminal 5 cm was rapidly removed and […]
USA) (1·10 -6 mol/L). The intraluminal content was rinsed and the isolated intestine was cut into 1.5-2 cm segments. The preparations were mounted between two platinum electrodes […]
and indomethacin (3·10 -7 mol/L).
CO2 mixture and maintained at 37 °C under a constant load of 1.0 g (Hugo Sachs Hebel-Messvorsatz (Tl-2)/HF-modem; Hugo Sachs Elektronik, Hugstetten, Germany) connected to a pen recorder (Kipp & Zonen BD41, Delft, Holland). During an equilibration period of 60 min, the Krebs buffer was changed every 10 min. The preparations were then continuously stimulated at 15-20 V at a frequency of 0.1 Hz for a duration of 0.5 ms, with rectangular-wave electrical pulses (Grass Stimulator S-88; Grass Instruments Co., Quincy, Massachusetts, […]
USA). […] Five minutes before (R)-(−)-α- […]
methylhistamine (RAMH) (Toronto Research Chemicals Inc., North York, Canada), administration, pyrilamine (Sigma-Aldrich, St. Louis, MO, USA) (1·10-5 mol/L concentration in organ bath) was added. The first cumulative concentration-response curve was determined […]
second to fourth curve was measured against increasing antagonist concentration (incubation time 20 min). The pA2-values were calculated according to Arunlakshana and Schild 5.
Statistical analysis was carried out with the Student’s t-test. In all tests, a p<0.05 was […]
considered statistically significant. The pA2 values were compared with the affinity of thioperamide (Sigma-Aldrich, St. Louis, MO, USA). […]

Series [5] deals with T2, eeAChE (Electrophorus electricus, UniProt O42275).
T2 construct: purchased Sigma–Aldrich (Steinheim, Germany)
The series can be described thus: biochemical. The following applies: for inhibition at 10 µM: read-out: eeAChE % inh. (10μM) ± SD; for IC50: read-out: eeAChE IC50 (μM) ± sem.

Series [6] deals with T3, hH3R (Homo sapiens, UniProt Q9Y5N1).
T3 construct: expressed in transfected cells; membrane fractions
The series can be described thus: hH3R radioligand displacement assay in membrane fractions of HEK-293 cells. The format is binding. The conditions noted are these: [3H]Nα-methylhistamine displacement, HEK-293 membranes; 95% CI in brackets. On the procedure: The compounds were tested against H3R by an ex vivo assay using isolated guinea pig ileum electrically stimulated to contraction, according to Vollinga et al.[47] The pA2-values were calculated according to Arunlakshana and Schild.[59] The radioligand-displacement assay was performed in membrane fractions of HEK-293 cells stably expressing hH3R. Cell cultivation and membrane preparation were performed according to Kottke et al.[48] The Ki values were calculated from the IC50 values using the Cheng–Prusoff equation.[60] The statistical calculations were performed on −log(Ki). The mean values and 95% confidence intervals were transformed to nanomolar concentrations. The inhibitory activities toward AChE and BuChE of novel ADS compounds were assessed in a spectrophotometric Ellman’s assay using electric eel AChE (eeAChE) and equine BuChE (eqBuChE).[57] Intracellular cAMP accumulation was measured with a homogeneous TR-FRET immunoassay using the LANCE Ultra cAMP kit (PerkinElmer) and HEK293 cells stably expressing the human histamine H3 receptor.[61] A more detailed description of the biological methods is presented in the Supporting Information. […]
considered statistically significant. The pA2 values were compared with the affinity of thioperamide (Sigma-Aldrich, St. Louis, MO, USA).
3.2. hH 3R radioligand displacement binding assay.
The radioligand displacement binding assay was performed in membrane fractions of HEK-293 cells stably expressing hH3R. Cell cultivation and membrane preparation was performed according to Kottke et al 6. For the radioligand displacement assay, radioactively labeled […]
assay volume was set to 200 µL. The compounds were tested in several appropriate concentrations between 100 µM and 0.1 nM. Pipetting was partly done by Freedom Evo® (Tecan). Pitolisant was used to determine non-specific binding at a concentration of 10 µM.
The membrane fraction (20 µg/well), test compounds, and radiolabeled ligand were incubated for 90 minutes at 25 °C while shaking. The bound radioligand was separated from the free radioligand by filtration through GF/B filters pre-treated with 0.3 % (m/v) polyethyleneimine using a cell harvester. Radioactivity was determined by liquid scintillation counting using a MicroBeta® Trilux (Perkin Elmer). The data was obtained in duplicates in at least three independent experiments. Non-specific binding was subtracted from the raw data to calculate specific binding values. The evaluation was performed with GraphPad Prism 6.1 (San Diego, CA, USA) using non-linear regression (one-site competition with a logarithmic scale). The Ki values were calculated from the IC50 values using the Cheng-Prusoff equation 7. The statistical calculations were performed on –log(Ki). […]
For orientation: Displacement assays read how much labelled ligand stays bound in the presence of the test substance.

Series [7] deals with AChE. The following applies: cited from earlier work.
Series [8] concerns BuChE. Also on record: method as in PMID 16599255. The following applies: cited from earlier work.
The target of series [9] is T3, hH3R. The following applies: cited from earlier work.
Where [10] appears, read: isolated guinea pig ileum, against (R)-(−)-α-methylhistamine, mean of at least three experiments, read-out: gpH3R pA2 ± sem (converted).

Sequence of eqBuChE (P81908 whole entry): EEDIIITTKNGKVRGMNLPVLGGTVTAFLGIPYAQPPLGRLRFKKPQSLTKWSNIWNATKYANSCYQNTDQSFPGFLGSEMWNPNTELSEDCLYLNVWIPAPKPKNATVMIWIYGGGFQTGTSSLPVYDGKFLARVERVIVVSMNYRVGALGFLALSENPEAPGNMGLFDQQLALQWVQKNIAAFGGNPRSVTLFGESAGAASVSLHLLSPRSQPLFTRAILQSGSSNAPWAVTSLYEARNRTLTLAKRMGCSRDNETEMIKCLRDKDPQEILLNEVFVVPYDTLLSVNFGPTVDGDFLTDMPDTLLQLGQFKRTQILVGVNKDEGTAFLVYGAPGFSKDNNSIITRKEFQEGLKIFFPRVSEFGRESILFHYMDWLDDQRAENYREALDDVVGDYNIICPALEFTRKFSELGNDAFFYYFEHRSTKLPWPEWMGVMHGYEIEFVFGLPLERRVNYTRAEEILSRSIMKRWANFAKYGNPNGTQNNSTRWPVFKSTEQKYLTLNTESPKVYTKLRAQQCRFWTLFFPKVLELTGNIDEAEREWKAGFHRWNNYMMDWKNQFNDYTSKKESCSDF
T1 sequence (Q9JI35 whole entry): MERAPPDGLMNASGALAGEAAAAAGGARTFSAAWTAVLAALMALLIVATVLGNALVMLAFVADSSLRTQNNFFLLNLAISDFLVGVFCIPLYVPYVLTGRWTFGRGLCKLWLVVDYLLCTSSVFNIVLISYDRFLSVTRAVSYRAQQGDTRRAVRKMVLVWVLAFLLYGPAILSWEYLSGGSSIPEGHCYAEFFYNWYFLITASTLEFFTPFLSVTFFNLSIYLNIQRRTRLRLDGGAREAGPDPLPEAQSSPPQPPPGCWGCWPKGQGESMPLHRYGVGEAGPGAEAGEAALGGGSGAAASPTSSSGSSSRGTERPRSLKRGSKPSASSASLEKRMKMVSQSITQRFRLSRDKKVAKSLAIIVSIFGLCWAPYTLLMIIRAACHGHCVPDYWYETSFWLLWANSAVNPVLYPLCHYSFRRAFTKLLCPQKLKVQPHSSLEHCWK
T3 sequence (Q9Y5N1 whole entry): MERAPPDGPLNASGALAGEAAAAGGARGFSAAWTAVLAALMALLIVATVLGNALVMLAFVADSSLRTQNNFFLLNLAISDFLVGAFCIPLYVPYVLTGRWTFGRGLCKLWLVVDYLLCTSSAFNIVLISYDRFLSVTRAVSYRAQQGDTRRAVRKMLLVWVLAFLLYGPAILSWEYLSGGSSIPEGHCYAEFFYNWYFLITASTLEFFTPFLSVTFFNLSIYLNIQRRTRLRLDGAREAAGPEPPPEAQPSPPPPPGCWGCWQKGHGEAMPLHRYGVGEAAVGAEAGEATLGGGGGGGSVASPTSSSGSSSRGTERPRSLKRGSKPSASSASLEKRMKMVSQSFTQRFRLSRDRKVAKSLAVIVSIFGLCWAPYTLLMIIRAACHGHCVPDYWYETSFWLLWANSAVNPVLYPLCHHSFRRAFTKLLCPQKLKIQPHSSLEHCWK
T2 sequence (O42275 24-633): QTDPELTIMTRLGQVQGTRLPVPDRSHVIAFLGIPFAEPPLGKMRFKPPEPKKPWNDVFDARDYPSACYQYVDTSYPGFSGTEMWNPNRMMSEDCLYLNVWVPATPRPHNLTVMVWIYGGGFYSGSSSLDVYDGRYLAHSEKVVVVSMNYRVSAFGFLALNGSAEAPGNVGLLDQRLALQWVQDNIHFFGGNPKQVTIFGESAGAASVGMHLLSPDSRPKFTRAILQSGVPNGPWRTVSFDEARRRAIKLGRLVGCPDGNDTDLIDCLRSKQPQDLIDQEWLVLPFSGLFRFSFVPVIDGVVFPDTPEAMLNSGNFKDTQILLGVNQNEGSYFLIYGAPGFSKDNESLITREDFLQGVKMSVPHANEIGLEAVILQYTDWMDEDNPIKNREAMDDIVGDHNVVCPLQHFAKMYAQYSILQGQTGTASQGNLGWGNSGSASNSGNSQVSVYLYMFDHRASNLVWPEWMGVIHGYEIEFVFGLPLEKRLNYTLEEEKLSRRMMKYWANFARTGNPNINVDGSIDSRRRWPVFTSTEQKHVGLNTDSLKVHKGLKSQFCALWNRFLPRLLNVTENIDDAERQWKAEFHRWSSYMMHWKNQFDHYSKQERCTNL

On to `CCCN(C)CCCCCOC1CCN(Cc2cc3ccccc3o2)CC1` [ADS003, 5-((1-(benzofuran-2-ylmethyl)piperidin-4-yl)oxy)-N-methyl-N-propylpentan-1-amine], for which, in series [1], the pA2 is 8.47. The “blood–brain barrier crossing” value in [2] is reported as “ability to cross the blood–brain barrier”.
For `CCCN(C)CCCCCOC1CCN(Cc2ccccc2)CC1` [ADS009, 5-((1-benzylpiperidin-4-yl)oxy)-N-methyl-N-propylpentan-1-amine], the pA2 in series [1] is recorded as 7.79.
`CCCN(C)c1ccc(OC2CCN(Cc3ccccc3)CC2)cc1` [ADS021, 4-((1-Benzylpiperidin-4-yl)oxy)-N-methyl-N-propylaniline]: in series [3], the inhibition at 10 µM is 95.88 ± 0.2% and the half-inhibitory concentration (IC50) stood at 0.559 ± 0.125 µM. Further, the Kb in series [4] was > 100000 nM. In addition, the inhibition at 10 µM in series [5] was determined as 33.4 ± 1.1%.
In turn, `CCCN(C)Cc1ccc(COC2CCN(Cc3ccccc3)CC2)cc1` [ADS022, N-(4-(((1-Benzylpiperidin-4-yl)oxy)methyl)benzyl)-N-methylpropan-1-amine] had a Ki in series [6] of 77.1 nM. Moreover, the inhibition at 10 µM worked out at 49.4 ± 1.9% in series [3] and 61.6 ± 2.8% in series [5]. In series [4], this compound had a Kb of 38 nM. The concentration for half-maximal inhibition (IC50) in series [5] turned out to be 6.89 ± 0.271 µM.
On to `CCCN(C)c1ccc(OC2CCN(Cc3cc4ccccc4o3)CC2)cc1` [ADS023, 4-((1-(Benzofuran-2-ylmethyl)piperidin-4-yl)oxy)-N-methyl-N-propylaniline], for which the figures for the inhibition at 10 µM in [3] and in series [5] were 43.2 ± 2.1% and 40.3 ± 2.8%, respectively. The Kb in [4] (setting [10]) was > 100000 nM.
In the case of `CCCN(C)Cc1ccc(COC2CCN(Cc3cc4ccccc4o3)CC2)cc1` [ADS024, N-(4-(((1-(Benzofuran-2-ylmethyl)piperidin-4-yl)oxy)methyl)benzyl)-N-methylpropan-1-amine], in series [6], the inhibition constant (Ki) came out at 144 nM. In addition, the inhibition at 10 µM in [3] turned out to be 32.2 ± 2.6%; in [5] it was 36.2 ± 3.6%. In [4], this compound showed a Kb of 26.9 nM.
For the compound `CCCN(C)Cc1cccc(COC2CCN(Cc3ccccc3)CC2)c1` [ADS025, N-(3-(((1-Benzylpiperidin-4-yl)oxy)methyl)benzyl)-N-methylpropan-1-amine], in series [3], the inhibition at 10 µM is 63.9 ± 1.7% and the half-maximal inhibitory concentration (IC50) is 6.05 ± 0.16 µM. The compound further had a Kb in series [4] of 129 nM. Further, in series [5], the inhibition at 10 µM was 53.7 ± 1.9% and the IC50 amounted to 9.94 ± 0.64 µM.
On to `CCCN(C)Cc1cccc(COC2CCN(Cc3cc4ccccc4o3)CC2)c1` [ADS026, N-(3-(((1-(Benzofuran-2-ylmethyl)piperidin-4-yl)oxy)methyl)benzyl)-N-methylpropan-1-amine], for which the results for the inhibition at 10 µM in series [3] and in [5] were 55.9 ± 2% and 5.5 ± 0.6%, respectively. The Kb in [4] (setting [10]) is 93.3 nM.
`CCCN(C)Cc1ccccc1COC1CCN(Cc2ccccc2)CC1` [ADS027, N-(2-(((1-Benzylpiperidin-4-yl)oxy)methyl)benzyl)-N-methylpropan-1-amine]: the inhibition at 10 µM in series [3] amounted to 64.6 ± 0.9%; in series [5] it was 4.8 ± 0.3%. Further, the IC50 in series [3] amounted to 4.31 ± 0.202 µM. This compound had a Kb in series [4] of 151 nM.
On the same counts, the results for `CCCN(C)Cc1ccccc1COC1CCN(Cc2cc3ccccc3o2)CC1` [ADS028, N-(2-(((1-(Benzofuran-2-ylmethyl)piperidin-4-yl)oxy)methyl)benzyl)-N-methylpropan-1-amine] are 79.6 ± 0.4%, 2.3 ± 0.3%, 2.65 ± 0.055 µM and 126 nM.
In the case of `CCCN(C)Cc1ccc(-c2ccc(COC3CCN(Cc4ccccc4)CC3)cc2)cc1` [ADS029, N-((4′-(((1-Benzylpiperidin-4-yl)oxy)methyl)-[1,1′-biphenyl]-4-yl)methyl)-N-methylpropan-1-amine], the inhibition at 10 µM in [3] was found to be 90.8 ± 0.3%; in series [5], 69 ± 0.5%. Moreover, the IC50 in series [3] is 1.4 ± 0.055 µM; in [5], 3.71 ± 0.134 µM. The compound further had a Kb in series [4] of 61.7 nM.
With `CCCN(C)Cc1ccc(-c2ccc(COC3CCN(Cc4cc5ccccc5o4)CC3)cc2)cc1` [ADS030, N-((4′-(((1-(Benzofuran-2-ylmethyl)piperidin-4-yl)oxy)methyl)-[1,1′-biphenyl]-4-yl)methyl)-N-methylpropan-1-amine], the inhibition at 10 µM is 83.1 ± 0.4% in series [3] and 31.2 ± 0.5% in [5]. Besides, the half-maximal inhibitory concentration (IC50) in series [3] came to 1.75 ± 0.077 µM. The compound further gave a Kb in series [4] of 257 nM.
As to `CCCN(C)Cc1ccc2cc(COC3CCN(Cc4cc5ccccc5o4)CC3)ccc2c1` [ADS032, N-((6-(((1-(Benzofuran-2-ylmethyl)piperidin-4-yl)oxy)methyl)naphthalen-2-yl)methyl)-N-methylpropan-1-amine], in [6], affinity was put at a Ki of 44.1 nM. For the same compound, the results for the inhibition at 10 µM in [3] and in series [5] were 90.3 ± 0.1% and 28.1 ± 3.9%, respectively. Further, the IC50 in series [3] was found to be 1.64 ± 0.074 µM. The same compound gave a Kb in series [4] of 87.1 nM.
In the case of `c1ccc2c(NCc3ccc(CCCN4CCCCC4)cc3)c3c(nc2c1)CCCC3` [III], the IC50 in series [7] is 2.6 nM; in series [8], 8.8 nM. Also, in series [9], the Ki was 0.3 nM.
Turning to `c1cc(-c2ccc(CN3CCCCC3)cc2)ccc1CCN1CCCCC1` [I], in series [7], the IC50 was 1100 nM.
In the case of `S=C(NC1CCCCC1)N1CCC(c2cnc[nH]2)CC1` [Thioperamide], the pA2 in series [1] is reported as 8.67.
